According to patent US8269010B2, “3-amino-pyridine derivatives for the treatment of metabolic disorders” (Piramal Healthcare Limited, priority 2006, dated 2012):
Values joined by “and” are separate entries in the source; they are usually repeats but may differ in a detail not shown here. Identical values can stand only once.

Columns and labels:
[1] = system: insulin resistant adipocytes (3T3 L1); experiment: In vitro model exhibiting insulin resistance (IR assay): 14C-2-deoxyglucose uptake; assay type: cell-based; conditions: glucose uptake; for fold induction at 10 µM: Mus musculus, dexamethasone-induced insulin resistant 3T3 L1 adipocytes, test compound 10 μM/mL, vehicle = 1.0, cut off 1.50 fold, read-out: Fold activity (fold activity over vehicle); for % of Rosiglitazone (comparison with Rosiglitazone): insulin resistant 3T3 L1 adipocytes, test compound 10 μM vs Rosiglitazone 0.1 μM
Protocol: The assay was designed as in the reference, British Journal of Pharmacology, 130, 351-58, 2000, the disclosure of which is incorporated by reference for the teaching of the assay. The solution of test compound (10 μM/mL) was prepared in DMSO. […] Differentiation into adipocytes was induced by the known methods as described below. (See, also, J. Biol. […] 3T3 L1 fibroblasts were seeded in 24- or 6-well plates at a density of 0.5−2×10^4 cells/well and were allowed to reach maximal confluency. The confluent fibroblasts were exposed to culture medium for 2 days. […] The mature adipocytes were exposed to dexamethasone, 100 nM added in ethanol, in culture medium and incubated for 2 days. […] The test compound was also present during this period. After 3-4 hours, the medium was aspirated and replaced with Kreb's Ringer phosphate (KRP) buffer at pH 7.4 and with human/porcine insulin, 200 nM. The cells were incubated for 30 minutes at 37° C. […] After exactly 5 minutes, the plates were transferred to ice trays and medium was rapidly aspirated. The cell layer was washed twice with ice-cold phosphate buffered saline, (PBS), pH 7.4. […] Non-specific glucose uptake was assayed in wells exposed to cytochalasin B, inhibitor of glucose transport. […] Statistical analysis was performed using unpaired t-test.

[2] = system: genetically diabetic db/db BL/6J mice; experiment: Screening in db/db BL/6J mice: reduction of plasma glucose levels; assay type: in vivo; conditions: 10 days
Protocol: The protocol was designed as in references. • 1.
The screening of compounds was based on their ability to reduce the plasma glucose levels in genetically diabetic db/db BL/6J mice.
Male db/db mice (obtained from the Animal House of Nicholas Piramal Research Centre, Goregaon, Mumbai, India) were used for this study (body weight in the range of 30-40 g and age is 6-8 weeks) and were kept eight per cage in individually ventilated cages at controlled temperature (22±1° C.) and humidity (45±5%). Food and water were provided ad libitum during their laboratory stay, except for four hours fasting prior to blood sample collection. 12 hours light and dark cycle was followed during the whole study period.
After 4 hours fasting blood samples were collected from mice. Mice showing plasma glucose levels between 300 to 500 mg/dl were divided in groups (8-10 per group) such that the mean plasma glucose levels and variation within the group, for each group, is nearly same. After grouping, mice in respective groups received treatment with 0.5% CMC vehicle, standard compound or test compounds for 10 days.
After 4 hours fasting, mice were anaesthetized using isoflurane (inhalation anesthetic), and blood samples were collected through the retro orbital plexus. Collected blood samples were centrifuged at 7000 rpm for 10 minutes at 4° C.; Separated plasma was used for estimation of plasma glucose using diagnostic kits (Diasys, Germany). Plasma glucose levels of treated groups were normalized with control group using the following formula, which accounted for the changes in control group.
Formula used for normalization was *:{1−[…]}×100.

Human PPARγ = target: T1, Human PPARγ (Homo sapiens, UniProt P37231); experiment: Human PPARγ transactivation assay (luciferase reporter, HEK293 cells); assay type: cell-based; conditions: 48 hours
T1 construct: Human full length PPARγ cDNA was cloned into pSG5 expression vector; expressed in transfected cells; host or cells: HEK293 cells
T1 sequence (P37231 1-505): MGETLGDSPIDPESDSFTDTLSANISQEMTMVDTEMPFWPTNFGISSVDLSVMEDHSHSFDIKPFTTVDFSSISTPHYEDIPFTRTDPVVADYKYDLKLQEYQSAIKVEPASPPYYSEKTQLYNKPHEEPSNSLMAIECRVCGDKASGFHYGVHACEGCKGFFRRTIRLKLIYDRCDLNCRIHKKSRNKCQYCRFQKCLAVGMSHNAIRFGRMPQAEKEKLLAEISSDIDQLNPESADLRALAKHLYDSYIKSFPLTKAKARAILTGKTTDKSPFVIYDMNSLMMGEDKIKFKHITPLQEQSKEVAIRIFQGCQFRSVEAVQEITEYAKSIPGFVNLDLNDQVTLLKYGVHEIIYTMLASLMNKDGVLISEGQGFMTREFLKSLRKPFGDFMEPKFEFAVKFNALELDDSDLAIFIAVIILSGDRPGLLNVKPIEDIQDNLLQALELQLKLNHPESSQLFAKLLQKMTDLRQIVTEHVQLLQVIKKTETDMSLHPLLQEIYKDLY
Protocol: The assay was designed as in the reference, Biochem. Biophys. Res. Comm. 175:865-871, 1991, the disclosure of which is incorporated by reference for the teaching of the assay. Human PPARγ activity was evaluated by transactivation using a luciferase reporter gene. The pBL-TK-luciferase reporter plasmid AOX-3×PPRE-TK-LUC contains three copies of the rat acyl CoA oxidase PPRE cloned upstream of the minimal herpes simplex virus thymidine kinase (TK) promoter. Human full length PPARγ cDNA was cloned into pSG5 expression vector (Stratagene, Lo Jolla, Calif.).
HEK293 cells were seeded in 24 well plates and grown in DMEM supplemented with 10% (v/v) FCS. After 24 hours, they were transfected with 100 ng of hPPARγ receptor and 300 ng of AOX-3×PPRE-LUC reporter construct per well using Fugen 6 transfection reagent (Roche, Indianapolis, Ind.). […] The control was 0.1% DMSO. After 48 hours, transactivation activity was determined by luciferase assay using Steady Glow reagent (Promega, Madison, Wis.).

Mouse PPARγ = target: T2, Mouse PPARγ (Mus musculus, UniProt P37238); experiment: Mouse PPARγ assay (TransAM PPARγ ELISA, 3T3-L1 fibroblasts); assay type: cell-based; conditions: test compound 50 μM, 72 hrs
T2 construct: endogenous in cells; host or cells: 3T3-L1 fibroblasts
T2 sequence (P37238 1-505): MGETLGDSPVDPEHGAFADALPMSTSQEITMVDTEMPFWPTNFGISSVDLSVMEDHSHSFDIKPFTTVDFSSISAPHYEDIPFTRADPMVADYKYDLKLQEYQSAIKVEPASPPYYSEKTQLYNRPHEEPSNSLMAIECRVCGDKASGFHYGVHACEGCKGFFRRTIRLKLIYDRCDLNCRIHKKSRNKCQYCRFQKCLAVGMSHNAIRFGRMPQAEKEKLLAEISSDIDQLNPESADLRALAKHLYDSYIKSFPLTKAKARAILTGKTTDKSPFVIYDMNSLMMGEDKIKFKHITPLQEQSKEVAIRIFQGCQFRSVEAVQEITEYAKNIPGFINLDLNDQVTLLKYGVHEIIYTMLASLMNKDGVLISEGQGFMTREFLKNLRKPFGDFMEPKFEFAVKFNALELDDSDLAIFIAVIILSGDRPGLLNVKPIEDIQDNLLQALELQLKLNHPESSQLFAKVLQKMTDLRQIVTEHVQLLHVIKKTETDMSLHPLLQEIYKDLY
Protocol: The assay was designed as in the reference, Blood, 104(5), 1361-8, 2004, the disclosure of which is incorporated by reference for the teaching of the assay.
3T3-L1 fibroblasts were seeded in 6-well plates at a density of 4×10^4 cells/well and cultured in DMEM containing 10% calf serum. After 4-5 days, when the cells become confluent, each of test compound was added (from a 20 mM stock in DMSO) to the final concentration of 50 μM in DMEM supplemented with 10% FCS. […] The plates were incubated for 72 hrs at 37° C. in a CO2 incubator with fresh medium containing test substances added after first 48 hrs. After 72 hrs, the medium was removed; the cell layer was washed and processed for the PPARγ assay as per the instruction of the manufacturer (Active Motif, North America, California, USA). PPARγ activation was determined using 96-well ELISA assay as per the instruction manual (TransAM PPARγ. Active Motif, Cat 0.40196). Assay Readout was absorbance output from spectrophotometer for the mouse PPARγ assay. Luminescence data output was recorded for the human PPARγ assay.

db/db mice = experiment: Evaluation of lipid levels (dyslipidemia) in db/db mice; assay type: in vivo; conditions: oral bid 15 days
Protocol: The assay was designed as in the reference, Metabolism, 49 (1), 22-31, 2000, the disclosure of which is incorporated by reference for the teaching of the assay. Seven groups of male db/db mice (8 animals per group) were used. […] Body weight was measured daily. On day 15, the animals were deprived of food for 4 hours after the last dose administration. Blood was collected at the end of the 4-hour period using heparinised capillaries by a retro-orbital puncture. Plasma samples were analyzed for glucose, triglyceride, cholesterol, using the autoanalyser.

COc1ccc(S(=O)(=O)Nc2cnc(Oc3cnc4ccccc4c3)c(Cl)c2)cc1 [Example 26, N-(5-Chloro-6-(quinolin-3-yloxy)pyridin-3-yl)-4-methoxybenzenesulfonamide]
fold induction at 10 µM [1]: 2.19 ± 0.09
% of Rosiglitazone (comparison with Rosiglitazone) [1]: 66.48 ± 5.26%
Normalization with control (plasma glucose) ([2]; 100 mpk bid): 41.90 ± 3.84
PPARγ activity (% of rosiglitazone) (Human PPARγ): 19.3%

O=S(=O)(Nc1cnc(Oc2cnc3ccccc3c2)c(Cl)c1)c1ccc(F)cc1F [Example 34, N-(5-Chloro-6-(quinolin-3-yloxy)pyridin-3-yl)-2,4-difluorobenzenesulfonamide]
PPARγ activity (% of rosiglitazone) (Mouse PPARγ): 8.17%
fold induction at 10 µM [1]: 1.7 ± 0.08
% of Rosiglitazone (comparison with Rosiglitazone) [1]: 43.59 ± 4.77%
Normalization with control (plasma glucose) ([2]; 50 mpk bid): 57.2 ± 19.1

COc1ccc(S(=O)(=O)Nc2cnc(Oc3cnc4ccccc4c3)c(Cl)c2)cc1OC [Example 30, N-(5-Chloro-6-(quinolin-3-yloxy)pyridin-3-yl)-3,4-dimethoxybenzenesulfonamide]
PPARγ activity (% of rosiglitazone) (Mouse PPARγ): 8.18%
fold induction at 10 µM [1]: 1.84 ± 0.02
Normalization with control (plasma glucose) ([2]; 50 mpk bid): 76.2 ± 19.2

O=S(=O)(Nc1cnc(Oc2cc3ccccc3cn2)c(Cl)c1)c1ccc(Cl)cc1Cl [Example 1, 2,4-Dichloro-N-(5-chloro-6-(isoquinolin-3-yloxy)pyridin-3-yl)benzenesulfonamide]
lowering lipid levels compared with Rosiglitazone (db/db mice): as efficacious as Rosiglitazone
reduction in cholesterol levels (db/db mice; doses higher than 50 mpk): 26%
PPARγ activity (% of rosiglitazone) (Mouse PPARγ): 12.4%
fold induction at 10 µM [1]: 2.41 ± 0.06
% of Rosiglitazone (comparison with Rosiglitazone) [1]: 78.75 ± 3.55%
Normalization with control (plasma glucose) ([2]; 150 mpk od): 43.2 ± 15.7
PPARγ activity (% of rosiglitazone) (Human PPARγ): 23%
melting point: 203 to 205 °C

CN(CCOc1ccc(CC2SC(=O)NC2=O)cc1)c1ccccn1 (centres unmarked) [Rosiglitazone, reference compound]
decrease in plasma triglyceride levels (db/db mice; Rosiglitazone 5 mpk): 40%
reduction in cholesterol levels (db/db mice; Rosiglitazone 5 mpk): 27%
Normalization with control (plasma glucose) ([2]; Rosiglitazone 5 mpk bid): 54.52 ± 4.92 and 107.9 ± 15.1 and 83.6 ± 12.8
Normalization with control (plasma glucose) ([2]; Rosiglitazone 10 mpk od): 93.8 ± 22.7 and 55.0 ± 11.4
